Laboratory results reported in patent US10131717B2, “Topically administered, skin-penetrating glycosaminoglycan formulations suitable for use in cosmetic and pharmaceutical applications” (London Health Sciences Centre Research Inc., priority 2010, dated 2018).

Columns and labels:
[1] = tested on: human dermal fibroblasts; assay: Hyaluronan cell coats on cultured human dermal fibroblasts (fluorescent nanosphere exclusion); format: cell-based; conditions: hyaluronan 500 μg/mL (350 kDa) or HA-PE-1 25 μg/mL, 1 hour; compared to PBS control; FIG. 1
Procedure: The suitability of the present compositions was assessed by determining its ability to encase/surround cultured dermal fibroblasts grown from a punch biopsy of human skin. Punch biopsies were placed in a sterile tissue culture dish (35×10 mm, tissue culture dish) and cut with small (e.g., 19 G) sterile needles into small fragments. The fragments were allowed to dry briefly (e.g., no more than 10 minutes) to the bottom of the tissue culture dish to promote adherence of the tissue fragments. Dulbecco's modified Eagles Medium (DMEM), supplements with 10% fetal calf serum (FCS) was then gently added and the culture is then placed in a humidified 37° C. incubator supplemented with 5% CO2 for approximately one week. […]
In the images shown in FIG. 1, the hyaluronan cell coat is observed as a dark space since small fluorescent beads are excluded by the coat as denoted by the arrow within the image. Cells without coats […] are entirely covered by the fluorescent beads.

[2] = tested on: senescent human fibroblasts; assay: Percent of cells with hyaluronan coats and coat size in senescent human fibroblasts; format: cell-based; conditions: FIG. 2
Procedure: Modified hyaluronan (HA-PE-1), prepared according to Example 2, or hyaluronan alone (350 kDA; 10 mg/mL stock solution in saline) was added to senescent human fibroblasts in increasing concentrations (0-100 μg/mL).
The effect of the addition of modified hyaluronan (HA-PE-1; 50 μg/mL) vs. hyaluronan alone (50 μg/mL) on the cell coat area of the cells was quantified using image analysis (Elements 3.1, Nikon). […] Values are means and S.E.M. for 10 samples.

[3] = tested on: female BL6 wild-type mice; assay: Comparison of ability to penetrate the skin barrier of mice (hyaluronan staining; treated vs untreated area); format: in vivo, mouse
Source text: HA-PE-2, prepared as described in Example 3, hyaluronan mixed with, but not covalently linked to, lipids in the lecithins present in Example 3 (see Example 1), and hyaluronan alone (no additional phospholipid), were each formulated with a NIVEA Creme cosmetic base cream (1:1, v/v) as described in Example 4. The creams were then applied to the shaved backs (0.18 g HA-PE-2/application, 40×30 mm shaved area) of 9-month old female BL6 wild-type mice once daily for 4 days. After this time, one group of animals was euthanized and processed according to the procedure described in Example 9. A second group of animals were left without further treatment for an additional […] and euthanized/processed as described in Example 9 on day 7.
Since the amount of endogenous hyaluronan in skin can vary with location, internal controls were designed to evaluate hyaluronan staining of treated and control skin were developed to confirm the difference between the treated vs. untreated skin area. HA-PE-2 and control creams (hyaluronan only) were applied to the shaved backs of mice as previously described. Areas of treatment were marked (hair in the adjacent untreated margins was removed with Nair™ and the punch aligned to include the treated and untreated region; tissue punches were orientated in small tissue baskets to keep the tissue in the correct orientation throughout processing and marked with a histology marker pen) and tissue was harvested/processed as previously described (Example 9).

[4] = tested on: skin barrier; conditions: Kaya et al.; cited from earlier work

In the case of hyaluronan, the “size of the hyaluronan coat (exclusion of fluorescent beads)” value [1] is reported as “little additional effect”, the “concentration at which the percentage of cells with coats reached a plateau” value ([2]; 0-100 μg/mL) is reported as 10 µg/mL and the “percentage of cells that exhibited hyaluronan coats” value ([2]; increasing concentrations 0-100 μg/mL) is reported as “fewer cells with hyaluronan coats”. The “hyaluronan staining / hyaluronan penetrating the skin barrier” value ([3]; creams once daily for 4 days, p<0.000001, FIG. 9, 10) was “negligible amounts of hyaluronan penetrating the skin barrier”, the “hyaluronan staining in keratinocytes following cessation of treatment” value ([3]; day 7, treatment stopped after day 4, FIG. 9, 10) was “remained negligible” and the “hyaluronan staining at the application edge, treated vs untreated area of skin” value ([3]; internal control, p<0.000001, FIG. 11, 12) was “a distinct margin of staining was not observed”. The “retention in skin of topically applied hyaluronan (literature)” value [4] was “poorly retained in the epidermal layer”.
